Measurements from PMC4505086, “Azobenzene-based inhibitors of human carbonic anhydrase II” (Beilstein Journal of Organic Chemistry, 2015).

Molecular target: T1, human carbonic anhydrase II (hCAII) (Homo sapiens, UniProt P00918)
T1 construct: made in house
Experiment: colorimetric endpoint measurement of hCAII-catalyzed pNPA hydrolysis
Assay type: biochemical
Conditions: for Ki: calculated from IC50 by Cheng–Prusoff equation, Km = 1092.5 µM for pNPA, [S] = 5.0 mM; for IC50: wild-type hCAII 500 nM, pNPA 5 mM, 50 mM Tris pH 7.4, 20–30 min in the dark, absorbance at 400 nm
Description: In order to determine the half-maximal inhibitory concentrations (IC50) and the inhibitory constants (Ki) towards hCAII for our library, we used a colorimetric endpoint measurement of the catalyzed pNPA hydrolysis (Figure 1a). Usually, a dansyl competition assay is employed for this purpose. However, as this assay is fluorescence-based and azobenzenes can quench fluorescence, this might cause a distortion in the obtained data. Furthermore, irradiation with UV light (i.e., λ = 280 nm for tryptophan excitation) can result in azobenzene-cis-isomerization, which could lead to different binding characteristics. Therefore, we aimed at the endpoint absorbance system described herein.
5. hCAII purification, crystallization and assay
5.1. Purification and crystallization
Wild-type human Carbonic Anhydrase II (hCAII) was expressed and purified as […]
previously reported. […]
5.2. Determination of half-maximal inhibitory concentration (IC50)
Approximately 1.0 mg of hCAII was dissolved in 100 µL of 50 mM Tris (pH 7.4) and diluted to a final concentration of 500 nM (concentration was determined in duplicates by absorbance spectroscopy) and mixed with the appropriate amount of blocker. The enzyme-blocker solution was then pipetted into a 96-well plate (white, clear flat bottom) containing pNPA for a final concentration of 5 mM. This was added simultaneously with a multi-well-pipette. After 20–30 min of incubation in the dark, the absorbance was measured using a plate reader at λ = 400 nm. Obtained data was background substracted and divided by data points of non-inhibited hCAII in order to obtain relative activity. The data points were fitted sigmoidal (eq. 1) or using the Hill equation (eq. 2) using IgorPro […]
All experiments were performed at least in triplicates. […]
y = base + [max / (1 + exp[(xhalf – x)/rate)]] (eq. 1) y = base + (max – base)/(1 + (xhalf / x)rate) (eq. 2)
5.3. Determination of inhibitory constants (Ki)
Inhibitory constants were determined using the Cheng–Prussow equation (eq. 3) with the obtained half-maximal inibitory constants (IC50) and with substrate concentration [S]
The Michaelis–Menten constant Km was obtained for this assay system independently and […]

Ki [nM]	IC50 [nM]	Structure (SMILES)
30.1	168	CCOC(=O)c1ccc(/N=N/c2ccc(S(N)(=O)=O)cc2)cc1 [1i, (E)-Ethyl 4-((4-sulfamoylphenyl)diazenyl)benzoate]
44.8	250	NS(=O)(=O)c1ccc(/N=N/c2ccccc2)cc1 [1h]
46.1	257	[N-]=[N+]=Nc1ccc(/N=N/c2ccc(S(N)(=O)=O)cc2)cc1 [1e]
65.1	363	Cc1ccc(/N=N/c2ccc(S(N)(=O)=O)cc2)cc1 [1f]
28.6	159	NS(=O)(=O)c1ccc(/N=N/c2ccc([N+](=O)[O-])cc2)cc1 [1g]

Further lines, the molecule ahead of its results:

Structure (SMILES)	Ki [nM]	IC50 [nM]
NS(=O)(=O)c1ccc(/N=N/c2ccc(O)cc2)cc1 [1a]	29.7	166
NS(=O)(=O)c1ccc(/N=N/c2ccc(N3CCOCC3)cc2)cc1 [1c]	55.4	309
CCN(CC)c1ccc(/N=N/c2ccc(S(N)(=O)=O)cc2)cc1 [1b]	25	140
